Data published in US20090215893A1, “Parakeratosis inhibitor, pore-shrinking agent,or rough skin preventing/ameliorating agent, and external composition for skin” (Shiseido Company Ltd, priority 2005, published 2009).

Columns and labels:
[1] = system: back of hairless mice (HR-1), 10 mass % oleic acid applied; experiment: Inhibiting effect against rough skin induced by oleic acid application (transepidermal water loss); format: in vivo; parameters: ΔTEWL value: unit not given here; conditions: for ΔTEWL value: three days, average of four animals, rough skin worse as value increases, control 12.0; for ΔTEWL value compared with the control aqueous solution / rough skin preventing/ameliorating effect: summary of Table 3, concentrations as in Table 3
Description: In order to investigate the inhibiting effect of α-amino acid derivatives and salts thereof against rough skin induced by oleic acid application, the transepidermal water loss (TEWL value) before and after application was measured, the difference was compared with the control (control aqueous solution), and the effect was determined. Sample preparation and the application method were in accordance with Example 1. The TEWL was determined using the TM210 TEWA Meter (Courage+Khazaka Electronic GmBH).
100 μL of 10 mass % oleic acid (solvent: ethanol) was applied to the back of hairless mice (HR-1, four mice per group). Then a sample solution (α-amino acid derivatives, and the like) was applied 100 μL at a time. This procedure was continued for three days. The following day, the TEWL value of the back was determined and the values of the four animals were averaged. Rough skin became worse as the ΔTEWL value increased.

[2] = system: back of a hairless mouse (HR-1), 10 mass % oleic acid applied; experiment: Parakeratosis-inhibiting effect tests: oleic acid applied to hairless mouse back, macroscopic rough skin evaluation and parakeratosis value; format: in vivo; conditions: for Macroscopic evaluation (average of four animals): 100 μL after oleic acid, three days, rough skin score 0.0 (no redness) to 2.0 (control); for Parakeratosis value (average of four animals): tape-stripped stratum corneum, hematoxylin, range 1.0 to 3.0, higher = parakeratosis advanced, control 2.0; for parakeratosis value / parakeratosis-inhibiting effect / rough skin preventing effect, based on stratum corneum peeling and redness: summary of Table 1, concentrations as in Table 1
Description: Aqueous solutions (containing 30 mass % of ethanol) of primarily 3 mass % of an α-amino acid derivative or salt thereof were prepared as the evaluation sample. The pH was regulated by hydrochloric acid or sodium hydroxide so as to be 7.0 to 7.5. When sample solubility was low, the solution was prepared accordingly.
100 μL of 10 mass % oleic acid solution (solvent: ethanol) were applied to the back of a hairless mouse (HR-1; Hoshino Laboratory Animals). Then the sample solution (α-amino acid derivative, and the like) was applied 100 μL at a time. This procedure was continued for three days. […] The status of the skin was evaluated in 0.25-point intervals, with skin where the control (control aqueous solution) had been applied being 2.0 and skin where there was no redness being 0.0. At the same time, the stratum corneum at the back of the hairless mouse was peeled off with tape, the nuclei were stained by hematoxylin, and the degree of parakeratosis was observed and evaluated by a parakeratosis value within a range of 1.0 to 3.0 (in 0.25 increments).

[3] = system: pores of the cheeks of healthy human males; experiment: Human pore-shrinking effect (replica assessment of cheek pores); format: in vivo; conditions: for Replica assessment (average of n = 5): twice a day for one month, pore size rating 1-13, after application minus before application, control 0.3; for pore-shrinking effect: summary of Table 2, concentrations as in Table 2
Description: An experiment was conducted whereby a sample was applied twice a day for one month to the cheeks of healthy human males in groups of 5 men each. Aqueous solutions (containing 15 mass % of ethanol) of 3 mass % of the α-amino acid derivative or a salt thereof were prepared as the evaluation sample. The pH was regulated by hydrochloric acid or sodium hydroxide so as to be 7.0 to 7.5. When sample solubility was low, the solution was prepared accordingly. The control was an aqueous 15% ethanol solution. The sample aqueous solution and control aqueous solution were applied to one half of the face at a time.
A replica was collected before and after continuous application, and changes in the shape of the pores at the same site were observed using a three-dimensional laser scanning microscope. The size of the pores was macroscopically evaluated in 13 steps of 1 through 13 (with the pores becoming larger as the numbers became larger), the difference in the ratings before and after application (after application-before application) was calculated, and the efficacy of each sample was studied using this difference as the replica assessment.

[4] = system: cheek of a panel of 20 women; experiment: Sensory irritation tests; format: in vivo, human; conditions: for Evaluation (sensory irritation, class of average rating): 1 mL on cheek, evaluated for ten minutes, 20 women; for sensory irritation: summary of Table 4, β-alanine at 3%
Description: 1 mL of a control aqueous solution and the sample aqueous solution prepared in Example 1 were applied using a cotton swab to the left or right cheek, respectively, of a panel of 20 women, the irritating sensation was evaluated every 30 seconds for ten minutes beginning immediately after application, and a final evaluation was reported. The evaluation of the irritating sensation was based on the following four steps of rating criteria, the average rating was calculated, and the average was classified by the following criteria.
3: Discontinued because of extremely strong irritation, such as stinging sensation, burning sensation, tickling sensation, itching, and the like.
2: Intolerable strong irritation, such as stinging sensation, burning sensation, tickling sensation, itching, and the like.
1: Tolerable with only slight stinging sensation, burning sensation, tickling sensation, itching, and the like.
0: Not particularly irritating.
A: average rating of less than 0.2
B: average rating of 0.2 to less than 1.0
C: average rating of 1.0 to less than 2.0
D: average rating of 2.0 or greater

For `CNC(CO)C(=O)O` (racemic) [N-methyl-DL-serine], the ΔTEWL value ([1]; sample 3 mass %) was 8.0, the “ΔTEWL value compared with the control aqueous solution / rough skin preventing/ameliorating effect” value [1] was “significantly lower” and the “Macroscopic evaluation (average of four animals)” value (shortened to “Macroscopic evaluation”) ([2]; sample 3 mass %) was 1.2. For the same compound, the “Parakeratosis value (average of four animals)” value ([2]; sample 3 mass %) was 1.2, the “parakeratosis value / parakeratosis-inhibiting effect” value [2] was “reduced” and the “rough skin preventing effect, based on stratum corneum peeling and redness” value (“rough skin preventing effect, based” below) [2] was “seen”. For the same compound, the “Replica assessment (average of n = 5)” value ([3]; sample 3 mass %) was −0.7, the “pore-shrinking effect” value [3] was “seen” and the “Evaluation (sensory irritation, class of average rating)” value ([4]; sample 3 mass %) was “A (average rating of less than 0.2)”. The “sensory irritation” value [4] was “no problems”.

In the case of `C[C@@H](NS(=O)(=O)c1ccccc1)C(=O)O` [N-benzenesulfonyl-D-alanine], the ΔTEWL value ([1]; sample 1.5 mass %) is reported as 7.0, the “Macroscopic evaluation” value ([2]; sample 1.5 mass %) is reported as 1.3 and the “Parakeratosis value (average of four animals)” value ([2]; sample 1.5 mass %) is reported as 1.4. For the same compound, the “Replica assessment (average of n = 5)” value ([3]; sample 1.5 mass %) was −1.2 and the “Evaluation (sensory irritation, class of average rating)” value ([4]; sample 1.5 mass %) was “A (average rating of less than 0.2)”.

`O=C(O)[C@@H](CO)NS(=O)(=O)c1ccccc1` [N-benzenesulfonyl-D-serine] was tested, and the ΔTEWL value ([1]; sample 3 mass %) was 6.7, the “ΔTEWL value compared with the control aqueous solution / rough skin preventing/ameliorating effect” value [1] was “significantly lower” and the “Macroscopic evaluation” value ([2]; sample 3 mass %) was 1.3. For the same compound, the “Parakeratosis value (average of four animals)” value ([2]; sample 3 mass %) was 1.2, the “parakeratosis value / parakeratosis-inhibiting effect” value [2] was “reduced” and the “rough skin preventing effect, based” value [2] was “seen”. For the same compound, the “Replica assessment (average of n = 5)” value ([3]; sample 3 mass %) was −1.1, the “pore-shrinking effect” value [3] was “seen” and the “Evaluation (sensory irritation, class of average rating)” value ([4]; sample 3 mass %) was “A (average rating of less than 0.2)”. For the same compound, the “sensory irritation” value [4] was “no problems”.

With `C[C@H](NS(=O)(=O)c1ccccc1)C(=O)O` [N-benzenesulfonyl-L-alanine] the ΔTEWL value ([1]; sample 1.5 mass %) was 7.2, the “ΔTEWL value compared with the control aqueous solution / rough skin preventing/ameliorating effect” value [1] was “significantly lower” and the “Macroscopic evaluation” value ([2]; sample 1.5 mass %) was 1.2. For the same compound, the “Parakeratosis value (average of four animals)” value ([2]; sample 1.5 mass %) was 1.3, the “parakeratosis value / parakeratosis-inhibiting effect” value [2] was “reduced” and the “rough skin preventing effect, based” value [2] was “seen”. For the same compound, the “Replica assessment (average of n = 5)” value ([3]; sample 1.5 mass %) was −0.9, the “pore-shrinking effect” value [3] was “seen” and the “Evaluation (sensory irritation, class of average rating)” value ([4]; sample 1.5 mass %) was “A (average rating of less than 0.2)”. The “sensory irritation” value [4] was “no problems”.

In the case of `O=C(O)[C@H](CO)NS(=O)(=O)c1ccccc1` [N-benzenesulfonyl-L-serine], the ΔTEWL value ([1]; sample 3 mass %) is reported as 6.8, the “ΔTEWL value compared with the control aqueous solution / rough skin preventing/ameliorating effect” value [1] is reported as “significantly lower” and the “Macroscopic evaluation” value ([2]; sample 3 mass %) is reported as 1.2. For the same compound, the “Parakeratosis value (average of four animals)” value ([2]; sample 3 mass %) was 1.2, the “parakeratosis value / parakeratosis-inhibiting effect” value [2] was “reduced” and the “rough skin preventing effect, based” value [2] was “seen”. For the same compound, the “Replica assessment (average of n = 5)” value ([3]; sample 3 mass %) was −1.2, the “pore-shrinking effect” value [3] was “seen” and the “Evaluation (sensory irritation, class of average rating)” value ([4]; sample 3 mass %) was “A (average rating of less than 0.2)”. The “sensory irritation” value [4] was “no problems”.

`O=C(O)CNS(=O)(=O)c1ccccc1` [N-benzenesulfonyl-glycine] was tested, and the ΔTEWL value ([1]; sample 3 mass %) was 6.9, the “ΔTEWL value compared with the control aqueous solution / rough skin preventing/ameliorating effect” value [1] was “significantly lower” and the “Macroscopic evaluation” value ([2]; sample 3 mass %) was 1.2. The “Parakeratosis value (average of four animals)” value ([2]; sample 3 mass %) was 1.2, the “parakeratosis value / parakeratosis-inhibiting effect” value [2] was “reduced” and the “rough skin preventing effect, based” value [2] was “seen”. For the same compound, the “Replica assessment (average of n = 5)” value ([3]; sample 3 mass %) was −1.3, the “pore-shrinking effect” value [3] was “seen” and the “Evaluation (sensory irritation, class of average rating)” value ([4]; sample 3 mass %) was “A (average rating of less than 0.2)”. For the same compound, the “sensory irritation” value [4] was “no problems”.

With `C[C@@H](NC(=O)OCc1ccccc1)C(=O)O` [N-carbobenzoyloxy-D-alanine] the ΔTEWL value ([1]; sample 3 mass %) was 7.1, the “ΔTEWL value compared with the control aqueous solution / rough skin preventing/ameliorating effect” value [1] was “significantly lower” and the “Macroscopic evaluation” value ([2]; sample 3 mass %) was 1.2. For the same compound, the “Parakeratosis value (average of four animals)” value ([2]; sample 3 mass %) was 1.1, the “parakeratosis value / parakeratosis-inhibiting effect” value [2] was “reduced” and the “rough skin preventing effect, based” value [2] was “seen”. The “Replica assessment (average of n = 5)” value ([3]; sample 3 mass %) was −0.8, the “pore-shrinking effect” value [3] was “seen” and the “Evaluation (sensory irritation, class of average rating)” value ([4]; sample 3 mass %) was “A (average rating of less than 0.2)”. The “sensory irritation” value [4] was “no problems”.
